In brackets after ≈: the same amount, converted by molar mass. Counter-ions that a name gives are not always drawn. Like-named read-outs stand apart in the source and are kept apart here.
Columns and labels:
Type in all cases: cell-based
[1] = system: Enterobacter cloacae GN7471; test: minimum inhibitory concentration (MIC); details: Enterobacter cloacae GN7471; Tables 2A, 2B; read-out: MIC
Experimental: (§1) The minimum inhibitory concentration (MIC) of the compounds obtained in the above Examples were measured according to the standard method of Japan Society of Chemotherapy.

[2] = system: Serratia marcescens GN10857; test: minimum inhibitory concentration (MIC); details: Tables 2A, 2B
Experimental: as §1

[3] = system: Staphylococcus aureus IAA498; test: minimum inhibitory concentration (MIC); details: Tables 2A, 2B
Experimental: as §1

Proteus vulgris GN7919 = test: minimum inhibitory concentration (MIC); details: Proteus vulgris GN7919; Tables 2A, 2B; read-out: MIC
Experimental: as §1

[4] = system: Pseudomonas aeruginosa 4au542; test: minimum inhibitory concentration (MIC); details: Tables 2A, 2B
Experimental: as §1

Escherichia coli ML4704 = test: minimum inhibitory concentration (MIC); details: Escherichia coli ML4704; Tables 2A, 2B; read-out: MIC
Experimental: as §1

[5] = system: Pseudomonas aeruginosa 5D58-1; test: minimum inhibitory concentration (MIC); details: 5D581, Tables 2A, 2B
Experimental: as §1

[6] = system: Klebsiella pneumoniae 4at521; test: minimum inhibitory concentration (MIC); details: Tables 2A, 2B
Experimental: as §1

[7] = system: Citrobacter freundii GN7391; test: minimum inhibitory concentration (MIC); details: Citrobacter freundii GN7391; Tables 2A, 2B; read-out: MIC
Experimental: as §1

[8] = system: Pseudomonas aeruginosa GN10362; test: minimum inhibitory concentration (MIC); details: Tables 2A, 2B
Experimental: as §1

Escherichia coli GN5482 = test: minimum inhibitory concentration (MIC); details: Tables 2A, 2B
Experimental: as §1

[9] = system: Enterobacter cloacae 908RN; test: minimum inhibitory concentration (MIC); details: Enterobacter cloacae 908RN, Tables 2A, 2B
Experimental: as §1

[10] = system: Staphylococcus aureus Smith; test: minimum inhibitory concentration (MIC), standard method of Japan Society of Chemotherapy; details: Tables 2A, 2B
Experimental: as §1

| Structure (SMILES) | MIC [1] [µg/mL] | MIC [2] [µg/mL] | MIC [3] [µg/mL] | MIC (Proteus vulgris GN7919) [µg/mL] | MIC [4] [µg/mL] | MIC (Escherichia coli ML4704) [µg/mL] | MIC [5] [µg/mL] | MIC [6] [µg/mL] | MIC [7] [µg/mL] | MIC [8] [µg/mL] | MIC (Escherichia coli GN5482) [µg/mL] | MIC ([9]; read-out: MIC) [µg/mL] | MIC [10] [µg/mL] | MIC [9] [µg/mL] |
| --- | --- | --- | --- | --- | --- | --- | --- | --- | --- | --- | --- | --- | --- | --- |
| Cc1cc(SCC2=C(C(=O)O)N3C(=O)C(NC(=O)C(=NOC(C)(C)C(=O)O)c4csc(N)n4)[C@H]3SC2)n2nc(CO)nc2n1 (stereo partly drawn) [Example 20, 7-[2-(2-amino-1,3-thiazol-4-yl)-2-(1-carboxy-1-methylethoxyimino)acetamido]-3-[(2-hydroxymethyl-5-methyl-s-triazolo[1,5-a]pyrimidin-7-yl)thiomethyl]-3-cephem-4-carboxylic acid] | 6.25 (≈ 9.42 µM) | 12.5 (≈ 18.8 µM) | 6.25 (≈ 9.42 µM) | 3.13 (≈ 4.72 µM) | 12.5 (≈ 18.8 µM) | 0.39 (≈ 0.588 µM) | 6.25 (≈ 9.42 µM) | 0.78 (≈ 1.18 µM) | > 100 | 12.5 (≈ 18.8 µM) | 0.78 (≈ 1.18 µM) |  | 3.13 (≈ 4.72 µM) | 100 (≈ 151 µM) |
| CC(C)(ON=C(C(=O)NC1C(=O)N2C(C(=O)O)=C(CSc3cc(C(=O)O)nc4nc(CO)nn34)CSC12)c1csc(N)n1)C(=O)NNC(=O)c1ccc(O)c(O)c1 (stereo not drawn) [Example 30, 7-{2-[2-amino-1,3-thiazol-4-yl]-2-[1-(3-(3,4-dihydroxybenzoyl)carbazoyl)-1-methylethoxyimino]acetamido}-3-[(5-carboxy-2-hydroxymethyl-s-triazolo[1,5-a]-pyrimidin-7-yl)thiomethyl]-3-cephem-4-carboxylic acid.hydrochlride] | 0.78 (≈ 0.924 µM) | 0.78 (≈ 0.924 µM) | 25 (≈ 29.6 µM) | 3.13 (≈ 3.71 µM) | 0.2 (≈ 0.237 µM) | 0.025 (≈ 0.0296 µM) | 0.1 (≈ 0.119 µM) | 0.025 (≈ 0.0296 µM) | 1.56 (≈ 1.85 µM) | 0.025 (≈ 0.0296 µM) | 0.05 (≈ 0.0593 µM) | 1.56 (≈ 1.85 µM) | 12.5 (≈ 14.8 µM) |  |
| CON=C(C(=O)NC1C(=O)N2C(C(=O)O)=C(CSc3cc(C(=O)O)nc4nc(CO)nn34)CSC12)c1csc(N)n1 (stereo not drawn) [Example 31] | 6.25 (≈ 10.1 µM) | 25 (≈ 40.2 µM) | 12.5 (≈ 20.1 µM) | 50 (≈ 80.4 µM) | > 100 | 0.1 (≈ 0.161 µM) | > 100 | 0.2 (≈ 0.322 µM) | 100 (≈ 161 µM) | 100 (≈ 161 µM) | 0.2 (≈ 0.322 µM) |  | 6.25 (≈ 10.1 µM) | 100 (≈ 161 µM) |

More lines, main results first:

| MIC [1] [µg/mL] | MIC [2] [µg/mL] | MIC [3] [µg/mL] | MIC (Proteus vulgris GN7919) [µg/mL] | MIC [4] [µg/mL] | MIC (Escherichia coli ML4704) [µg/mL] | MIC [5] [µg/mL] | MIC [6] [µg/mL] | MIC [7] [µg/mL] | MIC [8] [µg/mL] | MIC (Escherichia coli GN5482) [µg/mL] | MIC ([9]; read-out: MIC) [µg/mL] | MIC [10] [µg/mL] | Structure (SMILES) | MIC [9] [µg/mL] |
| --- | --- | --- | --- | --- | --- | --- | --- | --- | --- | --- | --- | --- | --- | --- |
| 3.13 | 12.5 | 12.5 | 25 | 100 | 0.025 | 100 | 0.39 | 50 | 100 | 0.1 | 50 | 0.39 | CON=C(C(=O)NC1C(=O)N2C(C(=O)O)=C(CSc3cc(C)nc4nc(CO)nn34)CSC12)c1csc(N)n1 (stereo not drawn) [Example 17, 7-[2-(2-amino-1,3-thiazol-4-yl)-2-(methoxyimino)acetamido]-3-[(2-hydroxymethyl-5-methyl-s-triazolo[1,5-a]pyrimidin-7-yl)thiomethyl]-3-cephem-4-carboxylic acid.hydrochloride] |  |
| 3.13 (≈ 3.78 µM) | 0.39 (≈ 0.471 µM) | 6.25 (≈ 7.55 µM) | 1.56 (≈ 1.88 µM) | 0.2 (≈ 0.242 µM) | 0.025 (≈ 0.0302 µM) | 0.05 (≈ 0.0604 µM) | 0.025 (≈ 0.0302 µM) | 12.5 (≈ 15.1 µM) | 0.05 (≈ 0.0604 µM) | 0.025 (≈ 0.0302 µM) | 6.25 (≈ 7.55 µM) | 3.13 (≈ 3.78 µM) | COCc1nc2nc(C)cc(SCC3=C(C(=O)O)N4C(=O)C(NC(=O)C(=NOC(C)(C)C(=O)NNC(=O)c5ccc(O)c(O)c5)c5csc(N)n5)C4SC3)n2n1 (stereo not drawn) [Example 24, 7-{2-[2-amino-1,3-thiazol-4-yl]-2-[1-(3-(3,4-dihydroxybenzoyl)carbazoyl)-1-methylethoxyimino]acetamido}-3-[(2-methoxymethyl-5-methyl-s-triazolo[1,5-a]-pyrimidin-7-yl)thiomethyl]-3-cephem-4-carboxylic acid.hydrochlride] |  |
| 6.25 (≈ 10.3 µM) | 25 (≈ 41.3 µM) | 25 (≈ 41.3 µM) | 25 (≈ 41.3 µM) | > 100 | 0.05 (≈ 0.0826 µM) | 100 (≈ 165 µM) | 1.56 (≈ 2.58 µM) | 50 (≈ 82.6 µM) | 100 (≈ 165 µM) | 0.39 (≈ 0.644 µM) | 50 (≈ 82.6 µM) | 0.78 (≈ 1.29 µM) | COCc1nc2nc(C)cc(SCC3=C(C(=O)O)N4C(=O)C(NC(=O)C(=NOC)c5csc(N)n5)C4SC3)n2n1 (stereo not drawn) [Example 26] |  |
